SMILES strings stand for the structures. Bounds are passed on as bounds.

Two compounds from US20180094019A1, “CRYSTALLINE FORMS OF MODIFIED TRITERPENOID HYDROCHLORIDE SALTS WITH HIV MATURATION INHIBITOR ACTIVITY” (VIIV HEALTHCARE UK (NO.4) LIMITED, priority 2015, published 2018) can be followed below.

A short description of data set [1]: Dehydration of form H-4 to anhydrous form P44 on drying / sensitivity to relative humidity. Type of data set: physicochemical. On the procedure:
Additionally, the ternary solvent mixture THF/water/MeCN can be used. If the resultant H-4 form is dried at a temperature greater than 60° C., then it converts to an anhydrous form of H-4, designated as P44. […] In practice, to minimize conversion to the P44 form, the drying can be conducted under a stream of humidified nitrogen gas.

Data set [2] can be described thus: Relationship of the crystalline forms: relative thermodynamic stability and critical water activity. Type of data set: physicochemical. The note with it: ambient conditions; T1F-2 compared with T1F-1. The source says: Herein we describe three crystalline forms of the monohydrochloride salt, Compound I, that have been prepared and identified: the monohydrochloride monohydrate H-4 form and two monohydrochloride forms designated as […]-1 and […]-2. […] The critical water activity between the […]-2 and H-4 forms is in the range 0.05-0.24.

With `C=C(C)[C@@H]1CC[C@]2(NCCN3CCS(=O)(=O)CC3)CC[C@]3(C)[C@H](CC[C@@H]4[C@@]5(C)CC=C(c6ccc(C(=O)O)cc6)C(C)(C)[C@@H]5CC[C@]43C)[C@@H]12.Cl` [Form H-4, 4-((1R,3aS,5aR,5bR, 7aR, 11aS,11bR,13aR,13bR)-3a-((2-(1,1-dioxidothiomorpholino)ethyl)amino)-5a,5b,8,8,11a-pentamethyl-1-(prop-1-en-2-yl)-2,3,3a,4,5,5a,5b,6,7,7a,8, 11,11a,11b, 12,13,13a,13b-octadecahydro-1H-cyclopenta[a]chrysen-9-yl)benzoic acid hydrochloride hydrate], the “sensitivity to relative humidity” value in data set [1] is listed as “sensitive to relative humidity”. The “drying temperature at which H-4 converts to anhydrous form P44” value in data set [1] (drying of the resultant H-4 form) was “greater than 60 °C”. For the same compound, the “temperature of dehydration to the P44 form” value in data set [1] (under a stream of dry nitrogen gas) was ≥ 30 °C.

With `C=C(C)[C@@H]1CC[C@]2(NCCN3CCS(=O)(=O)CC3)CC[C@]3(C)[C@H](CC[C@@H]4[C@@]5(C)CC=C(c6ccc(C(=O)O)cc6)C(C)(C)[C@@H]5CC[C@]43C)[C@@H]12.Cl` [Form T1F-2, 4-((1R,3aS,5aR,5bR, 7aR, 11aS,11bR,13aR,13bR)-3a-((2-(1,1-dioxidothiomorpholino)ethyl)amino)-5a,5b,8,8,11a-pentamethyl-1-(prop-1-en-2-yl)-2,3,3a,4,5,5a,5b,6,7,7a,8, 11,11a,11b, 12,13,13a,13b-octadecahydro-1H-cyclopenta[a]chrysen-9-yl)benzoic acid hydrochloride], the “relative thermodynamic stability of the crystalline forms” value in data set [2] is recorded as “thermodynamically more stable than T1F-1 form”.
